This is an account of results in ChEMBL document CHEMBL3779789, “Tricyclic pyrazoles. Part 8. Synthesis, biological evaluation and modelling of tricyclic pyrazole carboxamides as potential CB2 receptor ligands with antagonist/inverse agonist properties” (Eur J Med Chem, 2016).

Experiment [1] deals with Cannabinoid receptor 2 (Mus musculus) (UniProt P47936). Briefly: Antagonist activity at CB2 receptor in mouse BV2 cells assessed as reversal of WIN55,212-2-induced reduction of LPS-induced PGE2 production at 10 fold Ki concentration incubated for 16 hrs by ELISA. In kind it is cell-based. The conditions noted are these: BV-2. (In general: An ELISA detects its analyte on a solid surface through an enzyme-linked reagent.)
Chain of Cannabinoid receptor 2 (Mus musculus) (P47936 whole entry): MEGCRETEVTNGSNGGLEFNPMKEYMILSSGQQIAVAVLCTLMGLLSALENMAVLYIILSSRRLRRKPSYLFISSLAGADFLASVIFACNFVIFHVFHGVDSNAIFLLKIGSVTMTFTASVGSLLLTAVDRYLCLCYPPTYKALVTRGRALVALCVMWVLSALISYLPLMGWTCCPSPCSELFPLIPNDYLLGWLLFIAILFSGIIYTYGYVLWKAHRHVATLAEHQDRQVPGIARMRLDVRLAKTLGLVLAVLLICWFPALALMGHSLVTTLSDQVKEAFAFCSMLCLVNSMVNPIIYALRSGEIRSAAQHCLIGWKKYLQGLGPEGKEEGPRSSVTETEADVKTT

Experiment [2] addresses T1, Cannabinoid receptor 2 (Homo sapiens, UniProt P34972). Briefly: Displacement of [3H]CP55940 from human CB2 receptor expressed in HEK293-EBNA cell membrane incubated for 90 mins by liquid scintillation counting method. In kind it is cell membranes. For orientation: Loss of bound radioactivity is the signal in a displacement assay; it reports binding, not function.
For experiment [3], the target named is T2, Cannabinoid receptor 1 (Homo sapiens, UniProt P21554). Briefly: Displacement of [3H]CP55940 from human CB1 receptor expressed in HEK293-EBNA cell membrane incubated for 90 mins by liquid scintillation counting method. It counts as cell membranes.
T2 sequence (P21554 whole entry): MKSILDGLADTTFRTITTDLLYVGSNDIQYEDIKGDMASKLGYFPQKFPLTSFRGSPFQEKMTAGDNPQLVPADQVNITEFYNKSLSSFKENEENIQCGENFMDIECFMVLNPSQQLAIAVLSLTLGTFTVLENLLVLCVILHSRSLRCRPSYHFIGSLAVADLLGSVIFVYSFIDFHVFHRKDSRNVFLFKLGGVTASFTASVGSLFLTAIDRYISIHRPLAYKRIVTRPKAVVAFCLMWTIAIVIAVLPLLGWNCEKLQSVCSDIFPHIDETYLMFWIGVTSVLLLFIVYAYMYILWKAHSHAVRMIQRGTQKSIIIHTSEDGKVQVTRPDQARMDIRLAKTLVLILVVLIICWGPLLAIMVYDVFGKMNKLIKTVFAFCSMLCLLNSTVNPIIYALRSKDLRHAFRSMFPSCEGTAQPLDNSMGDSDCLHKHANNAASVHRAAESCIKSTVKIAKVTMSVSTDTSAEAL
Experiment [4] deals with Cannabinoid receptor 2 (Mus musculus) (UniProt P47936). Briefly: Antagonist/inverse agonist activity at CB2 receptor in mouse BV2 cells assessed as increase in LPS-induced PGE2 production at 10 fold Ki concentration incubated for 16 hrs by ELISA in presence of CB2 antagonist/inverse agonist SR144528. The conditions noted are these: BV-2. In kind it is cell-based.
The target of experiment [5] is T1, Cannabinoid receptor 2. Briefly: Displacement of [3H]CP55940 from human CB2 receptor expressed in HEK293-EBNA cell membrane at 40 uM incubated for 90 mins by liquid scintillation counting method relative to control. It counts as cell membranes.
For experiment [6], the target named is T2, Cannabinoid receptor 1. Briefly: Displacement of [3H]CP55940 from human CB1 receptor expressed in HEK293-EBNA cell membrane at 40 uM incubated for 90 mins by liquid scintillation counting method relative to control. It counts as cell membranes.
For experiment [7], the target named is T1, Cannabinoid receptor 2. Briefly: Antagonist/inverse agonist activity at human CB2 receptors expressed in human Chem4 cell membrane incubated for 30 mins by [35S]GTPgammaS binding assay. It counts as functional, cell membranes. A general note: Binding of GTPγS marks nucleotide exchange on a G protein.
Experiment [8] deals with Cannabinoid receptor 2 (Mus musculus) (UniProt P47936). Briefly: Antagonist/inverse agonist activity at CB2 receptor in mouse BV2 cells assessed as increase in LPS-induced PGE2 production at 10 fold Ki concentration incubated for 16 hrs by ELISA. In kind it is cell-based. The conditions noted are these: BV-2.
Experiment [9] in a line: Selectivity ratio of Ki for human CB1 receptor expressed in HEK293-EBNA cell membrane to Ki for human CB2 receptor expressed in HEK293-EBNA cell membrane. It counts as cell-based.

Structures are written as SMILES. Active and inactive are the calls of the source. The rule behind the calls is not given here.

T1 sequence (P34972 whole entry): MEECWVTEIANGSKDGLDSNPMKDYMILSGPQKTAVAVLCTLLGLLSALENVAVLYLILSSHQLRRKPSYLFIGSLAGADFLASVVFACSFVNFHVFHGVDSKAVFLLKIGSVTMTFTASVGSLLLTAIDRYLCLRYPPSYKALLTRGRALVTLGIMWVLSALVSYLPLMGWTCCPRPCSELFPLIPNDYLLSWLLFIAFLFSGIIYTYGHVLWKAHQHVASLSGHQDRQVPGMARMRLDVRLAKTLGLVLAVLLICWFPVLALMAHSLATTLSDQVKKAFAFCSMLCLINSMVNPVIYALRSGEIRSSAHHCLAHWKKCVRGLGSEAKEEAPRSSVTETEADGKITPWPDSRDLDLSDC

One may read the Ki as the dissociation constant of the complex between target and ligand, obtained from inhibition or displacement. Read a low Ki as tighter binding. A word on the IC50: it is the concentration at which inhibition is half-maximal. A lower IC50 goes with inhibition by little substance. As for `CC1(C)[C@@H]2CC[C@]1(C)[C@H](NC(=O)c1nn(-c3ccc(Cl)cc3Cl)c3c1Cc1cc(C4CC4)ccc1-3)C2`, the result in [1] and in experiment [4] was Active. Moreover, the inhibitory constant (Ki) in experiment [2] was 38 nM; in [3] it was over 40000 nM. Moreover, the Activity in [5] and in experiment [6] was over 70% throughout. The compound further returned an IC50 in experiment [7] of 26.9 nM. Also, the outcome in experiment [8] was inactive. The Ratio Ki in [9] was over 1060.

In the case of `O=C(c1nn(-c2ccc(Cl)cc2Cl)c2c1ccc1cc(C3CC3)ccc12)N1CCCCC1`, the inhibition constant (Ki) in experiment [2] and in [3] was over 40000 nM each time. The Activity in [5] and in [6] was over 70% throughout.

Consider `CC1(C)C2CC[C@@](C)(C2)C1NC(=O)c1nn(-c2ccc(Cl)cc2Cl)c2c1Cc1cc(C3CC3)ccc1-2` (stereo partly drawn), for which the result in [1] and in [8] was Active. Also, the values for the inhibition constant Ki in experiment [2] and in [3] were 6 nM and over 40000 nM, respectively. The outcome in [4] was inactive. For the same compound, the Activity in experiment [5] and in experiment [6] was over 70% each time. In [7], this compound gave a 50% inhibitory concentration (IC50) of 80.4 nM. In [9], the Ratio Ki was over 6940.

`O=C(NN1CCCC1)c1nn(-c2ccc(Cl)cc2Cl)c2c1Cc1cc(C3CC3)ccc1-2`: the Ki was 152 nM in [2] and 4210 nM in experiment [3]. Further, the Activity in experiment [5] and in experiment [6] was over 70% throughout. Besides, in experiment [9], the Ratio Ki came to 27.7.

For `CC1(C)C2CC[C@@](C)(C2)C1NC(=O)c1nn(-c2ccc(Cl)cc2Cl)c2c1CCc1cc(C3CC3)ccc1-2` (stereo partly drawn), the Ki in experiment [2] is 5520 nM; in experiment [3] it was over 40000 nM. Moreover, the Activity in [5] and in [6] was over 70% throughout. For the same compound, in [9], the Ratio Ki is over 7.25.

As to `CC1(C)C2CCC(CNC(=O)c3nn(-c4ccc(Cl)cc4Cl)c4c3CCc3cc(C5CC5)ccc3-4)C1C2` (stereo not drawn), the Ki in experiment [2] and in [3] was over 10000 nM each time. Further, the Activity in experiment [5] and in experiment [6] was over 70% in each case.

With `O=C(NN1CCCCC1)c1nn(-c2ccc(Cl)cc2Cl)c2c1ccc1cc(C3CC3)ccc12`, the inhibition constant (Ki) in [2] is 825 nM; in experiment [3] it was over 40000 nM. For the same compound, the Activity in experiment [5] and in [6] was over 70% throughout. In experiment [9], the Ratio Ki was over 48.5.

In the case of `O=C(NN1CCCCC1)c1nn(-c2ccc(Cl)cc2Cl)c2c1Cc1cc(C3CCCCC3)ccc1-2`, the figures for the inhibition constant (Ki) in experiment [2] and in experiment [3] were 509 nM and over 10000 nM, respectively. Further, the Activity in experiment [5] and in [6] was over 70% throughout. Also, the Ratio Ki in experiment [9] is over 19.6.

With `O=C(NN1CCCCC1)c1nn(-c2ccc(Cl)cc2Cl)c2c1CCc1cc(C3CC3)ccc1-2`, the Ki in [2] was 143 nM; in experiment [3] it was over 40000 nM. The Activity in experiment [5] and in [6] was over 70% throughout. The Ratio Ki in [9] was over 280.

As for `O=C(NN1CCOCC1)c1nn(-c2ccc(Cl)cc2Cl)c2c1Cc1cc(C3CC3)ccc1-2`, the Ki in experiment [2] came out at 198 nM; in experiment [3], 4030 nM. In addition, the Activity in experiment [5] and in [6] was over 70% in each case. Also, in experiment [9], the Ratio Ki turned out to be 20.4.

With `O=C(NN1CCCCC1)c1nn(-c2ccc(Cl)cc2Cl)c2c1Cc1cc(C3CC3)ccc1-2`, the figures for the Ki in experiment [2] and in [3] were 69.4 nM and 1850 nM, respectively. Further, the Activity in experiment [5] and in experiment [6] was over 70% in each case. This compound registered a concentration for half-maximal inhibition (IC50) in [7] of 294 nM. Further, the Ratio Ki in experiment [9] came to 26.7.

`O=C(NN1CCCC1)c1nn(-c2ccc(Cl)cc2Cl)c2c1Cc1cc(C3CCCCC3)ccc1-2`: the figures for the Ki in experiment [2] and in [3] were 515 nM and over 10000 nM, respectively. The Activity in [5] and in experiment [6] was over 70% in each case. The Ratio Ki in [9] was over 19.4.

As for `CC1(C)C2CC[C@@](C)(C2)C1NC(=O)c1nn(-c2ccc(Cl)cc2Cl)c2c1ccc1cc(C3CC3)ccc12` (stereo partly drawn), the Ki in experiment [2] and in [3] was over 40000 nM each time. The Activity in [5] and in experiment [6] was over 70% each time.

With `O=C(NC12CC3CC(CC(C3)C1)C2)c1nn(-c2ccc(Cl)cc2Cl)c2c1Cc1cc(C3CC3)ccc1-2`, the outcome in experiment [1] was Active. For the same compound, the Ki in [2] is 4 nM; in experiment [3], over 10000 nM. The result in [4] and in [8] was inactive. Besides, the Activity in experiment [5] and in [6] was over 70% throughout. Moreover, the 50% inhibitory concentration (IC50) in experiment [7] came to 50.7 nM. In experiment [9], the Ratio Ki was over 2230.

As to `O=C(c1nn(-c2ccc(Cl)cc2Cl)c2c1Cc1cc(C3CC3)ccc1-2)N1CCCCC1`, the inhibition constant Ki in [2] was 414 nM; in experiment [3], over 10000 nM. For the same compound, the Activity in experiment [5] and in [6] was over 70% throughout. In addition, the Ratio Ki in [9] was over 24.2.

Take `O=C(NN1CCCC1)c1nn(-c2ccc(Cl)cc2Cl)c2c1ccc1cc(C3CC3)ccc12`: the Ki in experiment [2] and in experiment [3] was over 40000 nM in each case. Further, the Activity in experiment [5] and in experiment [6] was over 70% in each case.

`CC1(C)C2CC[C@@](C)(C2)C1NC(=O)c1nn(-c2ccc(Cl)cc2Cl)c2c1Cc1cc(C3CCCCC3)ccc1-2` (stereo partly drawn): the Ki in experiment [2] and in experiment [3] was over 10000 nM each time. Moreover, the Activity in [5] and in experiment [6] was over 70% in each case.
